# Where two headings read alike, the source gives them in different places.
# Tested on: CT-26 mourine tumor cells
# Settings: for survival rate of mice: FIG. 8
# Procedure: Female BALB/c mice (average weight: 20 g) were injected subcutaneously in the flank with CT-26 mourine tumor cells (5×10^4 cells/mouse). When the tumor was growing to the size of 3 mm×3 mm, the mice were divided into two groups; an experimental group and a control group. Each group was filled with 8 mice having a tumor and they were marked in their ears for the observation. 15 days after the transplantation, the administration (an intravenous injection) of drug and vehicle began. Each test drug was administered both with low dose of 2 mg/kg and with high dose of 10 mg/kg every three days four times total for 12 days. Only vehicle (cremophor:dehydrated ethyl alcohol, 1:1 v/v) was administered to a control group. Death rate of mice was checked every day and the growth of a tumor was measured using caliper measurement device at two or three day interval. Tumor volume was calculated by the following Formula 2. Tumor volume: mm^3=(Length×Width^2)/2 <Formula 2>
# A drug or a vehicle was injected into tail vein of a mouse two weeks after tumor transplantation.
# Tumor volume was measured from the 15th day after tumor cell transplantation.
structure (smiles),measurement,setting,value
CC(=O)O[C@H]1C(=O)[C@@]2(C)[C@H]([C@H](OC(=O)c3ccccc3)[C@]3(O)C[C@H](OC(=O)[C@H](O)[C@@H](NC(=O)c4ccccc4)c4ccccc4)C(C)=C1C3(C)C)[C@]1(OC(C)=O)CO[C@@H]1C[C@@H]2O [paclitaxel],time for which tumor growth was inhibited before regrowth,"10 mg/kg i.v., CT-26 tumor mice, FIG. 9",30 days
same,survival rate of mice,"high dose 10 mg/kg i.v. every three days four times, CT-26 tumor mice",not much different from each other
same,tumor volume / anticancer activity,"high dose 10 mg/kg i.v., CT-26 tumor mice, FIG. 9",remarkably decreased
same,survival rate of mice,"low dose 2 mg/kg i.v. every three days four times, CT-26 tumor mice",not much different from each other
same,tumor volume / tumor growth,"low dose 2 mg/kg i.v., CT-26 tumor mice, FIG. 9",not much different between them
same,weight changes of mice,"mouse, in vivo",not significantly different

# Source: patent US7883723B2, “Water soluble chitosan nanoparticle for delivering an anticancer agent and preparing method thereof” (priority 2004, dated 2011)
